The values below come from article PMC7580722, “Design of new disubstituted imidazo[1,2-b]pyridazine derivatives as selective Haspin inhibitors. Synthesis, binding mode and anticancer biological evaluation” (Journal of Enzyme Inhibition and Medicinal Chemistry, 2020).

The subject of experiment [1] is U-2 OS cells. In words: Scratch wound cell migration assay (IncuCyte). The format is cell-based, human. The conditions noted are these: 0.6 µM, 0.5% FBS, normalised against DMSO control (100%).
The target in another experiment is T1, HsHaspin (Homo sapiens, UniProt Q8TF76).
T1 construct: aa470-798; made in house; host or cells: E. coli
T1 sequence (Q8TF76 470-798): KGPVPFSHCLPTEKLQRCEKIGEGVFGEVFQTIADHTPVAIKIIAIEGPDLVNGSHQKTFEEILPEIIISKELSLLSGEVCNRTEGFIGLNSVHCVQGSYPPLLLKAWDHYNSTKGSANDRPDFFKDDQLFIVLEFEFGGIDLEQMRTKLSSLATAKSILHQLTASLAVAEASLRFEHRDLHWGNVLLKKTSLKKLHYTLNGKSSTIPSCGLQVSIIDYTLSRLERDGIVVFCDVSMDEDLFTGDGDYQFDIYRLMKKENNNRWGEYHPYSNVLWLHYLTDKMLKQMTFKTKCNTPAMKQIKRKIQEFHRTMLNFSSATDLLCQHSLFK
The experiment in a line: Recombinant Haspin kinase assay ([γ-33P]ATP, 15 µM ATP; some values ADP-Glo). The format is biochemical. The settings on record: recombinant HsHaspin, in vitro. As to the method:
Values are IC50 expressed in µM and calculated from dose–response curves (each point on the curves was performed in triplicate). Selectivity indexes (SI; in brackets) are calculated as follows: SI = IC50 kinase X/IC50 Haspin. ND: not determined. *IC50 values obtained using the ADP-Glo methodology (see Experimental section, Supplementary Material). […]
A, HsCdk9/Cyclin T). Native SscCK1δ /ε and SscGSK3α/β were purified from pig brain whereas HsPlk1, HsCdk1 and HsAurora B were purchased from ProQinase and SignalChem respectively. Kinase assays were performed in […]
mCi/ml; PerkinElmer) in a final volume of 30 µl as previously reported 51. After 30 min incubation at 30°C, the reaction mix was spotted onto GE healthcare P81 phosphocellulose paper using a FilterMate Harvester (PerkinElmer), and the filter was extensively washed with a 1% phosphoric acid solution. The wet filter-bound radioactivity was determined in the presence of 20 µl scintillation fluid (GE healthcare) with a TopCount® Scintillation and Luminescence Counter (PerkinElmer). IC50 values were calculated from dose-response curves […]
Kinase activities using the ADP-Glo methodology (ADP-Glo Kinase Assay; Promega) were assayed according to the assay described in Nguyen et al. 52 and Ibrahim et al. 53. […]
(ADP-Glo first removes unused ATP, then detects ADP through luciferase.)

The next experiment has as its system U-2 OS. The experiment in a line: Cell viability, monolayer (2D), MTS assay. The conditions noted are these: Homo sapiens, U2OS, 48 h. It counts as cell-based. (Formazan colour is commonly taken as a measure of viable cells.)
The test system of experiment [2] is Haspin activity (H3T3ph) in U-2 OS cells. The experiment in a line: In-cell Haspin activity, H3T3ph immunofluorescence. It counts as cell-based, human. The conditions noted are these: 24 h.
The subject of experiment [3] is U-2 OS cells. In words: Cell cycle analysis by flow cytometry (propidium iodide). The conditions noted are these: 2.5 µM, 24 h, U-2 OS. (A flow cytometer gives signals particle by particle.)
Procedure: Figure 6. […] DNA content was measured by flow cytometry and representative profiles are shown. (B) quantification of the proportion of cells in each phase of the cell cycle from the experiment described in (A). Results are mean percentage (n = 3 independent experiments).
Cellular evaluation methods
All media were supplemented with 10% fetal calf serum (unless overwise specified) and 2 mM L-glutamine and cells were cultured
F68-pluronic acid. Cells were fixed for 2h in ice-cold ethanol, then washed twice in PBS containing 0.1% F68-pluronic acid, centrifuged at 200 g and resuspended in a PBS buffer containing 1% Triton, 100 µg/ml RNase A (Thermo Scientific) and 40 µg/ml propidium iodide (Life Technologies). DNA content was determined using a FACS Canto II (BD) and the data were analyzed using FCS Express Cytometry software (De Novo Software).
Twenty thousand events were collected in each run.
The target of another experiment is T2, HsPLK1 (Homo sapiens, UniProt P53350).
T2 construct: purchased ProQinase
In words: PLK1 kinase assay. It counts as biochemical. The conditions noted are these: Table 4. As to the method: . We therefore tested our compounds on two obvious candidates, HsCDK1 and HsPLK1 (Polo-like_kinase 1) both required for mitotic entry[50] (Table 4).
Values are IC50 expressed in µM and calculated from dose–response curves (each point from the curves was performed in duplicate). NR: not relevant. […]
Recombinant protein kinases were expressed and purified from E. coli (HsHaspin kinase domain aa470-798, HsCdk5/p25, RnDYRK1A kinase domain aa1-499, HsPIM1, MmCLK1) or baculovirus/Sf9 cells (HsCdk2/Cyclin A, HsCdk9/Cyclin T). Native SscCK1δ /ε and SscGSK3α/β were purified from pig brain whereas HsPlk1, HsCdk1 and HsAurora B were purchased from ProQinase and SignalChem respectively. Kinase assays were performed in specific buffers and substrates for each kinase tested in the presence of 15 µM [γ-33P] ATP (3,000 Ci/mmol, 10 mCi/ml; PerkinElmer) in a final volume of 30 µl as previously reported 51. After 30 min incubation at 30°C, the reaction mix was spotted onto GE healthcare P81 phosphocellulose paper using a FilterMate Harvester (PerkinElmer), and the filter was extensively washed with a 1% phosphoric acid solution. The wet filter-bound radioactivity was determined in the presence of 20 µl scintillation fluid (GE healthcare) with a TopCount® Scintillation and Luminescence Counter (PerkinElmer). IC50 values were calculated from dose-response curves

Each structure is given as a SMILES string.

T2 sequence (P53350 whole entry): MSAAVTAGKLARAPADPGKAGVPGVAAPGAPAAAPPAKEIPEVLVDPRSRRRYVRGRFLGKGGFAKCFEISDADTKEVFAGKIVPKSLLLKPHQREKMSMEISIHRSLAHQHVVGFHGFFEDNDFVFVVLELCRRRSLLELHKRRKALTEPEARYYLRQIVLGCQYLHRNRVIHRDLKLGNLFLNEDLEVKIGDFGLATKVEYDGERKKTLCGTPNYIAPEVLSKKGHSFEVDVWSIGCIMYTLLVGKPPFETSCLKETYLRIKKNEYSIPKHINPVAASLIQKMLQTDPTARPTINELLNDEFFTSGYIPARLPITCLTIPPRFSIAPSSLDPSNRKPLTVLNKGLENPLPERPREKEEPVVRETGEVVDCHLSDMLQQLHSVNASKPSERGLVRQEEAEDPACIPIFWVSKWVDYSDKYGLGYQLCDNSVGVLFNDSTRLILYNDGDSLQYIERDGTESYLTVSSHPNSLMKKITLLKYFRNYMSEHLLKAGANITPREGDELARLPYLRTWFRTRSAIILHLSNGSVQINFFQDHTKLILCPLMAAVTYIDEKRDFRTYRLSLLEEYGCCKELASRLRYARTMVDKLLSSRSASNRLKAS

Take `c1cc2[nH]ncc2cc1-c1cnc2ccc(OC[C@@H]3CNCCO3)nn12` [Compound 21]: the “normalised wound closure after 24 h” value in the experiment on U-2 OS cells [1] was “around 100%”. The results for the IC50 at HsHaspin and against HsPLK1 were 6 nM and > 10 µM, respectively. Besides, the EC50 (commonly the concentration needed to bring the measured effect to its halfway point) with U-2 OS is 5.2 µM. The “H3T3ph signal remaining in prometaphase cells (% of ctrl)” value in experiment [2] (0.5 µM) came out at 2.4%. The inhibition (in general, the change of the read-out against control, counted positive when it falls) at 0.05 µM in experiment [2] (Homo sapiens, U2OS, 0.05 µM, read-out: inhibition of cellular Haspin activity) is > 80%. The “cells in G2/M phase (% of cell total population)” value with U-2 OS cells [3] (DMSO control 12.8%) came to 21.4%. For the same compound, the “cells in S phase (% of cell total population)” value in the experiment on U-2 OS cells [3] (DMSO control 51.9%) is reported as 32%.
